Patent US10987319B2, “TFEB activator C1 ameliorates app and tau pathology and rescues cognitive deficits in neurodegenerative diseases” (Hong Kong Baptist University, priority 2018, dated 2021)

Columns and labels:
Type in all cases: in vivo
3×Tg mice [1] = experiment: Morris-water maze; conditions: 50 mg/kg oral 7 months
Experimental: Homozygous 3×Tg mice (APP KM670/671NL (Swedish), MAPT P301L, PSEN1 M146V) were produced in Hong Kong Baptist University animal house and maintained at 23±2° C. temperature, 60±15% relative humidity with free access to food and water ad libitum. Seven months old WT (129/SvJ, n=6 for male mice; n=10 for female mice) and 3×Tg mice (n=6 for male mice; n=10 for female mice) were treated daily with vehicle (1% CMC-Na; Sigma-Aldrich, C5678]), curcumin analogue C1 (2.5 mg/kg, 5 mg/kg, 10 mg/kg) or curcumin (50 mg/kg; Sigma-Aldrich, 08511) suspended in 1% CMC-Na by oral gavage for 7 months. 3×Tg mice were treated with the indicated compounds for 7 months and Morris-water maze (MWM) was used to evaluate the spatial learning memory. MWM is a circular water (21±1° C.) container with 1 meter diameter. Animals were pre-quarantined and acclimatized to the experimenting room at least 1 week before the start of the experiment. The experiment was started with one day visual platform trial. Each mouse underwent 4 visible platform trails (each trial 60 seconds) with different platform placement, positioned above the water level. Hidden platform training was conducted after mixing a non-toxic paint in the water. Mice were trained for 6 continuous days, each day composed of different session with 4 hidden platform trials (each trial 60 seconds). Each session was designed with randomized animal introduction pattern into the water maze with unchanged platform position. Each trial was conducted with 30 min inter-trial interval and provided with external cues. To assess the long term spatial memory retrieval a probe trial (60 seconds) was conducted 24 h after the last training session. During probe trial water maze was divided into 4 quadrants. The hidden platform in the target quadrant was removed after determining its location. Ethnovision XT software was used to observe and record the swimming pattern. During hidden platform training sessions, time spent to find the platform was taken as a parameter to evaluate memory acquisition. In probe trial percentage of time spent in the target quadrant compared to the other 3 quadrants was calculated.

[2] = system: APP, CTFs, phosphorylated Tau, total Tau, TFEB, LC3-II; experiment: Western blotting of hippocampus, female 3×Tg mice; conditions: 50 mg/kg oral 7 months
Experimental: (§1) Homozygous 3×Tg mice (APP KM670/671NL (Swedish), MAPT P301L, PSEN1 M146V) were produced in Hong Kong Baptist University animal house and maintained at 23±2° C. temperature, 60±15% relative humidity with free access to food and water ad libitum.
(§2) Brain tissues were lysed with RIPA buffer (TBS with 1% NP-40, 1% sodium deoxycholic acid, 0.1% SDS, and protease phosphatase inhibitor cocktails) and centrifuged at 15,000 RPM for 30 min. Supernatant is collected and the pellets were further lysed with 2% SDS in RIPA buffer. Protein concentration was estimated by BCA assay. […] Protein chemiluminescence signal was detected by using ECL kit and quantified using ImageJ software.

5×FAD mice = experiment: Contextual fear conditioning; conditions: 50 mg/kg oral daily 4 months, P<0.05
Experimental: Male 5×FAD mice were purchased from Jackson laboratories (Stock number 006554) and maintained at 23±2° C. temperature, 60±15% relative humidity with free access to food and water ad libitum. 5×FAD male mice were inbred with wild-type (WT, C57/BL6) female mice to produce heterozygous offspring. Offspring were genotyped to select 5×FAD (APP KM670/671NL (Swedish), APP I716V (Florida), APP V717I (London), PSEN1 M146L (A>C), PSEN1 L286V) gene mutations mice. Two months old WT and 5×FAD mice (male and female, n=10-14 per group) were treated daily with vehicle (1% sodium carbonyl methylcellulose [CMC-Na; Sigma-Aldrich, C5678]), curcumin analogue C1 (5 mg/kg, 10 mg/kg) or curcumin (50 mg/kg; Sigma-Aldrich, 08511) suspended in 1% CMC-Na by oral gavage for 4 months.
Contextual fear conditioning (CFC) was used to evaluate the fear memory reconsolidation of 5×FAD mice after treatment. The experiment was conducted 30 min after the drug treatment in ANY maze fear conditioning system under licensed ANY maze tracking system connected to a Windows XP computer. A digital camera was installed on each chamber and signals were sent to the computer for analysis. The experiments were conducted in two sound proof chambers. All the experiments were conducted with continuous 40 units of white noise and 40 lux white light. During training, mice were allowed to explore the platform for 2.5 min and then received 3 repeated footshock cycles (30 s) at 30 s intervals, each started with a cue tone (28 s, 1500 Hz) and ended by a footshock ([…], 2 s). On the second day the mice were allowed to explore the platform for 3 min followed by a cue tone (30 s, 1500 Hz) without footshock, and the freezing time was recorded. Contextual fear memory formation and the subsequent remote memory stabilization were evaluated by scoring freezing index (the absence of all but respiratory movement).

[3] = system: APP, APP CTFs, Aβ, LC3-II; experiment: Western blotting of brain tissue, 5×FAD mice
Experimental: 5×FAD male mice were inbred with wild-type (WT, C57/BL6) female mice to produce heterozygous offspring. Offspring were genotyped to select 5×FAD (APP KM670/671NL (Swedish), APP I716V (Florida), APP V717I (London), PSEN1 M146L (A>C), PSEN1 L286V) gene mutations mice.
as §2

[4] = Pharmacokinetic study in mice, oral (brain and blood levels by LC/MS/MS); conditions: male, mouse, C57BL/6 mice, oral 10 mg/kg, brain
3×Tg mice [5] = experiment: Open-field test; conditions: 3×Tg mice, 50 mg/kg oral 7 months
Experimental: Homozygous 3×Tg mice (APP KM670/671NL (Swedish), MAPT P301L, PSEN1 M146V) were produced in Hong Kong Baptist University animal house and maintained at 23±2° C. temperature, 60±15% relative humidity with free access to food and water ad libitum. Seven months old WT (129/SvJ, n=6 for male mice; n=10 for female mice) and 3×Tg mice (n=6 for male mice; n=10 for female mice) were treated daily with vehicle (1% CMC-Na; Sigma-Aldrich, C5678]), curcumin analogue C1 (2.5 mg/kg, 5 mg/kg, 10 mg/kg) or curcumin (50 mg/kg; Sigma-Aldrich, 08511) suspended in 1% CMC-Na by oral gavage for 7 months. 3×Tg mice were treated with the indicated compounds for 7 months and then the open-field test was performed to evaluate the exploratory behavior in novel environment. The experiment was conducted 30 min after last dosing time. Mice placed in the center of an empty open field (25 cm×25 cm) were allowed to explore the environment for 5 min without any external disturbance. Ethnovision XT software was used to measure the patterns of movement, time spent in the center and margin, velocity, distance traveled as indicators of agility and exploration.

Aβ plaques = experiment: Immunohistochemistry of Aβ plaques (4G8 antibody), 3×Tg mice; conditions: 50 mg/kg oral 7 months
Experimental: as §1
Brain sections (30 μm) were cut on a microtome and stored at 4° C. in PBS+0.1% sodium azide. Sections were permeabilized for 10 min with cold PBS containing 0.5% Triton X-100 and blocked with 3% bovine serum albumin for 1 h at room temperature.

[6] = 5×FAD mice, male and female, 50 mg/kg oral 4 months

## COc1cc(/C=C/C(=O)CC(=O)/C=C/c2ccc(O)c(OC)c2)ccc1O [curcumin, Curcumin, reference compound]
3×Tg mice [1]
  percentage of time spent in the target quadrant, probe trial, vs vehicle: significantly increased
[2]
  CTFs: no significant reduction
[2]; hippocampus
  levels of phosphorylated Tau (PHF1, AT8): significantly decreased
5×FAD mice
  freezing index (memory reconsolidation) vs vehicle: significant memory reconsolidation
[3]; [6]
  LC3-II levels in brain (autophagy enhancement): increase in LC3-II levels
  levels of A3 in brain: significantly reduced
  levels of APP CTFs in brain: significantly reduced
[3]; female 5×FAD mice, oral 4 months
  Fl-APP levels in brain: reduced Fl-APP levels
[4]
  Tmax: 1 h
[4]; read-out: maximum concentration (Cmax) in the brain
  Cmax: 73.77 ± 0.24 ng/g
3×Tg mice [5]
  improvement in the open field test: no significant improvement
Aβ plaques
  Aβ load: no significant reduction
